Measurements taken from PMC6321055, “Synthesis of Novel ent-Kaurane-Type Diterpenoid Derivatives Effective for Highly Aggressive Tumor Cells” (Molecules, 2018).

Legend:
[1] = test system: SNU-1040; test: MTT cytotoxicity assay, SNU-1040; conditions: Homo sapiens, 24 h, read-out: In vitro cytotoxic activity IC50, SNU-1040
Method: (§1) Cells were purchased from the Wuxi Innovatbio Medicine Technology Co. LTD (Wuxi, China) and were maintained at 37 °C under the atmosphere of 5% CO2. The cells of human non-small lung cancer (H292) and colon cancer cell line (SNU-1040) cells were cultured in RPMI-medium and others (rat myoblasts and HepG2) were cultured in dulbecco′s modified eagle medium (DMEM). 10% fetal bovine serum (Tianhang Biotechnology Co., Ltd., Zhejiang, China) and 1% antibiotics (100 U/mL penicillin and 100 mg/mL streptomycin) was supplemented. Cells are inoculated in 96-well plate and cultured for 24 h. After attached to the culture bottle wall cells were divided cells into three groups, (1) control group; (2) positive control group; (3) experiment group. […] After 24 h, 10% MTT was added and cells were culture for 3.5 h. Then the culture medium was discard and 150 µL DMSO was added. Eventually, after incubation for 10 min by shaking in the dark at room temperature, the absorbance was detected at 490 nm using a microplate reader, and the difference was analyzed by prism 7 software.

[2] = test system: NSCLC-H292; test: MTT cytotoxicity assay, NSCLC-H292; conditions: Homo sapiens, 24 h, read-out: In vitro cytotoxic activity IC50, NSCLC-H292
Method: as §1

[3] = in vitro; conditions: rat
Method: as §1

[4] = test system: HepG2; test: MTT cytotoxicity assay, HepG2; conditions: for IC50: Homo sapiens, HepG2, 24 h, read-out: In vitro cytotoxic activity IC50, HepG2; for SI (selective index, IC50 of normal cells/IC50 of tumor cells): IC50 L6 / IC50 HepG2
Method: as §1

[5] = MTT cytotoxicity assay, L6 normal cells; conditions: rat, L6 rat myotube cells (normal cells)
Method: as §1

| Compound | melting point | IC50 at 24 h [3] | IC50 [1] | IC50 [2] | IC50 [4] | SI (selective index, IC50 of normal cells/IC50 of tumor cells) [4] | IC50 at 24 h [5] |
| --- | --- | --- | --- | --- | --- | --- | --- |
| C=C1C[C@]2(C(=O)OCC)C[C@H]1C(=O)C[C@@H]2C1CC(C)(C)C=CC1=O (some centres unmarked) [Compound 13] | 112 to 114.6 °C | > 10 µM | 1.41 µM | 4.44 µM | > 10 µM | – | – |
| C=C1C[C@]2(C(=O)OCC)C[C@H]1C(=O)C[C@H]2C1CC(C)(C)C=CC1=O (some centres unmarked) [Compound 14] | 103.2 to 105.8 °C | > 10 µM | 1.72 µM | 2.95 µM | > 10 µM | – | – |
| C=C1C(=O)[C@]23C[C@H]1CC[C@H]2[C@@]12CO[C@]3(O)[C@@H](O)[C@@H]1C(C)(C)C=CC2=O [Eriocalyxin B, reference compound] | – | – | 1.54 µM | 7.11 µM | 2.12 µM | – | > 10 µM |

Further lines, with some results ahead:

| melting point | IC50 at 24 h [3] | Compound | IC50 [1] | IC50 [2] | IC50 [4] | SI (selective index, IC50 of normal cells/IC50 of tumor cells) [4] | IC50 at 24 h [5] |
| --- | --- | --- | --- | --- | --- | --- | --- |
| – | > 10 µM | C=C1C(O)[C@]2(C(=O)OCC)C[C@H]1C(=O)C[C@@H]2C1CC(C)(C)C=CC1=O (some centres unmarked) [Compound 15] | 3.13 µM | 1.99 µM | 1.81 µM | – | – |
| – | > 10 µM | C=C1C(=O)[C@]2(C(=O)OCC)C[C@H]1C(=O)C[C@@H]2C1CC(C)(C)C=CC1=O (some centres unmarked) [Compound 16] | 2.44 µM | 1.69 µM | 0.33 µM | 161.06 | – |
| – | > 10 µM | C=C1C(O)[C@]2(C(=O)OCC)C[C@H]1C(=O)C[C@H]2C1CC(C)(C)C=CC1=O (some centres unmarked) [Compound 17] | 2.82 µM | 0.99 µM | 1.58 µM | 47.80 | – |
| – | > 10 µM | C=C1C(=O)[C@]2(C(=O)OCC)C[C@H]1C(=O)C[C@H]2C1CC(C)(C)C=CC1=O (some centres unmarked) [Compound 18] | 3.01 µM | 1.35 µM | 0.56 µM | – | – |
